Data on 7 molecules can be found in PubChem BioAssay (NCI).

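48-hour exposure; five concentrations; linearly interpolated endpoints. Here, GI50 denotes the concentration required for 50% inhibition of growth. TGI is the concentration that stops growth completely.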 Some results are limits rather than exact numbers.

Among the test systems are NCI-H460 lung; OVCAR-4 ovarian; RXF 393 renal; TK-10 renal; ACHN renal; MDA-MB-231 breast; 786-0 renal; NCI-H23 lung; CCRF-CEM leukemia; SNB-19 CNS.
Holding throughout (assay): inhibition of tumour cell growth, NCI panel, 48 h

Turning to `[CH3][Sn]([CH3])([CH3])[O][N+](=O)[O-]`, the GI50 was 8.25 µM with NCI-H460 lung; 2.66 µM in the assay with OVCAR-4 ovarian; 2190 nM in the assay on RXF 393 renal; over 10 µM in the assay with TK-10 renal; over 10000 nM in the assay with ACHN renal; 3.67 µM in the assay with MDA-MB-231 breast. The GI50 was 1920 nM in the assay with 786-0 renal, 5020 nM in the assay with NCI-H23 lung, 2190 nM in the assay with CCRF-CEM leukemia and over 10 µM in the assay with SNB-19 CNS. In addition, the TGI is over 10 µM with NCI-H460 lung; 5.53 µM in the assay on OVCAR-4 ovarian; 9.73 µM with RXF 393 renal; over 10 µM in the assay on TK-10 renal; over 10 µM in the assay on ACHN renal; 7.35 µM in the assay on MDA-MB-231 breast. In addition, the TGI in the assay with 786-0 renal was 3.51 µM; in the assay on NCI-H23 lung it was over 10 µM; with CCRF-CEM leukemia, 6.9 µM; in the assay on SNB-19 CNS, over 10 µM.
For the molecule `Nc1ncnc2c1ccn2[C@@H]1O[C@H]([C@H](O)c2ccc(Cl)c(F)c2)[C@@H](O)[C@H]1O`, the GI50 is over 100 µM with NCI-H460 lung; over 100 µM with OVCAR-4 ovarian; 66500 nM with RXF 393 renal; over 100 µM with TK-10 renal; over 100000 nM in the assay with ACHN renal; over 100 µM in the assay with MDA-MB-231 breast. For the same molecule, the GI50 in the assay on 786-0 renal was over 100000 nM; in the assay with NCI-H23 lung, over 100000 nM; in the assay with CCRF-CEM leukemia it was over 100000 nM; in the assay on SNB-19 CNS it was over 100 µM. Further, the TGI with NCI-H460 lung, in the assay on OVCAR-4 ovarian, with RXF 393 renal, in the assay with TK-10 renal, in the assay with ACHN renal and in the assay with MDA-MB-231 breast was over 100 µM each time. In addition, the TGI in the assay with 786-0 renal, in the assay with NCI-H23 lung, in the assay on CCRF-CEM leukemia and in the assay with SNB-19 CNS was over 100 µM in each case.
With `COCc1c(-c2ccc(NC(=O)Nc3cc(C(F)(F)F)ccc3F)c(F)c2)c2c(N)ncnn2c1CN1CCOCC1`, the GI50 in the assay with NCI-H460 lung was 2.24 µM; in the assay with OVCAR-4 ovarian it was 1.97 µM; in the assay on RXF 393 renal, 236 nM; in the assay with TK-10 renal, 1.29 µM; in the assay on ACHN renal, 1480 nM; with MDA-MB-231 breast, 1.91 µM. The GI50 in the assay on 786-0 renal was 2760 nM; in the assay on NCI-H23 lung, 1610 nM; in the assay with CCRF-CEM leukemia it was 1950 nM; in the assay on SNB-19 CNS, 2.93 µM. In addition, the TGI is 9.74 µM in the assay on NCI-H460 lung; over 10 µM in the assay on OVCAR-4 ovarian; 1.43 µM in the assay on RXF 393 renal; 7.53 µM in the assay with TK-10 renal; over 10 µM with ACHN renal; over 10 µM with MDA-MB-231 breast. For the same molecule, the TGI was over 10 µM in the assay with 786-0 renal, 5.18 µM in the assay with NCI-H23 lung, 7.96 µM with CCRF-CEM leukemia and over 10 µM in the assay with SNB-19 CNS.
For the molecule `Cc1cc(Cl)cc(Cc2cc(Cl)cc(C)c2O)c1O`, the GI50 in the assay on NCI-H460 lung is 3.14 µM; in the assay with OVCAR-4 ovarian, 3.29 µM; in the assay with RXF 393 renal, 2290 nM; in the assay on TK-10 renal, 3.97 µM; in the assay with ACHN renal it was 2260 nM; in the assay on MDA-MB-231 breast, 2.46 µM. In addition, the GI50 is 2480 nM in the assay with 786-0 renal, 1900 nM with NCI-H23 lung, 3080 nM with CCRF-CEM leukemia and 3.32 µM in the assay with SNB-19 CNS. Moreover, the TGI with NCI-H460 lung worked out at 10.5 µM; in the assay with OVCAR-4 ovarian it was 50.6 µM; in the assay on RXF 393 renal, 6.91 µM; in the assay with TK-10 renal, 12 µM; with ACHN renal it was 7.26 µM; in the assay with MDA-MB-231 breast, 8.22 µM. The TGI was determined as 7.76 µM in the assay with 786-0 renal, 8.09 µM in the assay on NCI-H23 lung, 16.1 µM in the assay with CCRF-CEM leukemia and 16.8 µM in the assay with SNB-19 CNS.
For the molecule `COC(=O)[C@]12CC[C@@H](C)[C@H](C)[C@@H]1C1=CC[C@@H]3[C@@]4(C)C(C=O)=C[C@@](C)(COC(=O)/C=C/c5ccccc5)[C@@H]4[C@H](O)C[C@@]3(C)[C@]1(C)CC2`, the GI50 is 2.96 µM in the assay with NCI-H460 lung; 3.16 µM in the assay with OVCAR-4 ovarian; 1790 nM with RXF 393 renal; 6.74 µM in the assay on TK-10 renal; 2760 nM in the assay on ACHN renal; 4.36 µM with MDA-MB-231 breast. In addition, the GI50 was 5010 nM in the assay with 786-0 renal, 2990 nM in the assay with NCI-H23 lung, 2390 nM with CCRF-CEM leukemia and 6.47 µM in the assay on SNB-19 CNS. The TGI in the assay on NCI-H460 lung is 10.2 µM; with OVCAR-4 ovarian, over 100 µM; in the assay with RXF 393 renal, 4.45 µM; with TK-10 renal, 39.3 µM; in the assay with ACHN renal, 9.95 µM; with MDA-MB-231 breast, 27.2 µM. Further, the TGI with 786-0 renal was 42.7 µM; in the assay on NCI-H23 lung, 15.1 µM; with CCRF-CEM leukemia it was over 100 µM; in the assay on SNB-19 CNS it was over 100 µM.
Turning to `C/C(=N/N=C(N)N)c1ccc(NC(=O)Nc2ccc(/C(C)=N/N=C(N)N)cc2)cc1`, the GI50 with NCI-H460 lung is 13.5 µM; in the assay on OVCAR-4 ovarian, 17.1 µM; in the assay with RXF 393 renal, 20300 nM; in the assay on TK-10 renal, 6.2 µM; in the assay with ACHN renal, 20700 nM; with MDA-MB-231 breast, 20 µM. Besides, the GI50 in the assay on 786-0 renal is 10700 nM; in the assay with NCI-H23 lung it was 13900 nM; in the assay on CCRF-CEM leukemia it was 21700 nM; in the assay on SNB-19 CNS, 19.6 µM. Also, the TGI is 48.8 µM in the assay on NCI-H460 lung; 61.1 µM in the assay on OVCAR-4 ovarian; 42.4 µM in the assay on RXF 393 renal; 33.8 µM with TK-10 renal; over 55.4 µM in the assay with ACHN renal; 71.2 µM in the assay on MDA-MB-231 breast. The TGI is 30.1 µM in the assay on 786-0 renal, 48 µM in the assay with NCI-H23 lung, 97.8 µM in the assay on CCRF-CEM leukemia and 45 µM with SNB-19 CNS.
Regarding `O=C(O)Cc1cccc2c(=O)c3cccc([N+](=O)[O-])c3oc12`, the TGI in the assay with NCI-H460 lung, in the assay on OVCAR-4 ovarian, in the assay with RXF 393 renal, in the assay with TK-10 renal, in the assay with ACHN renal and in the assay with MDA-MB-231 breast was over 100 µM in each case. Moreover, the TGI with 786-0 renal, in the assay with NCI-H23 lung, in the assay on CCRF-CEM leukemia and in the assay with SNB-19 CNS was over 100 µM in each case.
